According to US6096930A, “Herbicidal cyclohexane-1,3-dione derivatives and their preparation process” (Korea Research Institute of Chemical Technology, priority 1994, dated 2000):

Columns and labels:
Assay in all cases: Herbicidal activity, upland test, pre-emergence
Type in all cases: in vivo
AESIN = test system: AESIN
In short: (§1)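 Visual percent control, scored from 0 (no herbicidal effect) to 100 (complete kill), was recorded after 21 days in the greenhouse. Compounds had been sprayed onto sterilized sandy loam soil one day after seeding, in acetone/water containing up to 0.1% Tween 20, generally at 4.0 kg/ha and submultiples.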

BROJA = test system: BROJA
In short: as §1

GLXMX = test system: GLXMX
In short: as §1

ORYSA = test system: ORYSA
In short: as §1

PANDI = test system: PANDI
In short: as §1

SORBI = test system: SORBI
In short: as §1

TRZAW = test system: TRZAW
In short: as §1

ZEAMX = test system: ZEAMX
In short: as §1

CCCC(=NOC)C1=C(O)CC(c2c(C)c(C)c3c(c2C)CC(C)(C)C3)CC1=O (stereo not drawn) [Compound 6]
Herbicidal activity, AESIN (AESIN; 0.016 kg/ha): 0 % inhibition | Herbicidal activity, AESIN (AESIN; 0.063 kg/ha): 0 % inhibition | Herbicidal activity, AESIN (AESIN; 1.000 kg/ha): 0 % inhibition | Herbicidal activity, AESIN (AESIN; 1.250 kg/ha): 0 % inhibition | Herbicidal activity, BROJA (BROJA; 0.016 kg/ha): 0 % inhibition | Herbicidal activity, BROJA (BROJA; 0.063 kg/ha): 0 % inhibition | Herbicidal activity, BROJA (BROJA; 1.000 kg/ha): 80 % inhibition | Herbicidal activity, BROJA (BROJA; 1.250 kg/ha): 40 % inhibition | Herbicidal activity, GLXMX (GLXMX; 0.016 kg/ha): 0 % inhibition | Herbicidal activity, GLXMX (GLXMX; 0.063 kg/ha): 0 % inhibition | Herbicidal activity, GLXMX (GLXMX; 1.000 kg/ha): 0 % inhibition | Herbicidal activity, GLXMX (GLXMX; 1.250 kg/ha): 0 % inhibition | Herbicidal activity, ORYSA (ORYSA; 0.016 kg/ha): 0 % inhibition | Herbicidal activity, ORYSA (ORYSA; 0.063 kg/ha): 30 % inhibition | Herbicidal activity, ORYSA (ORYSA; 1.000 kg/ha): 80 % inhibition | Herbicidal activity, ORYSA (ORYSA; 1.250 kg/ha): 30 % inhibition | Herbicidal activity, PANDI (PANDI; 0.016 kg/ha): 0 % inhibition | Herbicidal activity, PANDI (PANDI; 0.063 kg/ha): 80 % inhibition | Herbicidal activity, PANDI (PANDI; 1.000 kg/ha): 100 % inhibition | Herbicidal activity, PANDI (PANDI; 1.250 kg/ha): 100 % inhibition | Herbicidal activity, SORBI (SORBI; 0.016 kg/ha): 0 % inhibition | Herbicidal activity, SORBI (SORBI; 0.063 kg/ha): 0 % inhibition | Herbicidal activity, SORBI (SORBI; 1.000 kg/ha): 30 % inhibition | Herbicidal activity, SORBI (SORBI; 1.250 kg/ha): 0 % inhibition | Herbicidal activity, TRZAW (TRZAW; 0.016 kg/ha): 0 % inhibition | Herbicidal activity, TRZAW (TRZAW; 0.063 kg/ha): 0 % inhibition | Herbicidal activity, TRZAW (TRZAW; 1.000 kg/ha): 60 % inhibition | Herbicidal activity, TRZAW (TRZAW; 1.250 kg/ha): 20 % inhibition | Herbicidal activity, ZEAMX (ZEAMX; 0.016 kg/ha): 0 % inhibition | Herbicidal activity, ZEAMX (ZEAMX; 0.063 kg/ha): 0 % inhibition | Herbicidal activity, ZEAMX (ZEAMX; 1.000 kg/ha): 40 % inhibition | Herbicidal activity, ZEAMX (ZEAMX; 1.250 kg/ha): 0 % inhibition

CCC(=NOC)C1=C(O)CC(c2c(C)c(C)c3c(c2C)CC(C)(C)C3)CC1=O (stereo not drawn) [Compound 1]
Herbicidal activity, AESIN (AESIN; 0.016 kg/ha): 0 % inhibition | Herbicidal activity, AESIN (AESIN; 0.063 kg/ha): 0 % inhibition | Herbicidal activity, AESIN (AESIN; 1.000 kg/ha): 0 % inhibition | Herbicidal activity, AESIN (AESIN; 1.250 kg/ha): 0 % inhibition | Herbicidal activity, BROJA (BROJA; 0.016 kg/ha): 0 % inhibition | Herbicidal activity, BROJA (BROJA; 0.063 kg/ha): 0 % inhibition | Herbicidal activity, BROJA (BROJA; 1.000 kg/ha): 100 % inhibition | Herbicidal activity, BROJA (BROJA; 1.250 kg/ha): 40 % inhibition | Herbicidal activity, GLXMX (GLXMX; 0.016 kg/ha): 0 % inhibition | Herbicidal activity, GLXMX (GLXMX; 0.063 kg/ha): 0 % inhibition | Herbicidal activity, GLXMX (GLXMX; 1.000 kg/ha): 0 % inhibition | Herbicidal activity, GLXMX (GLXMX; 1.250 kg/ha): 0 % inhibition | Herbicidal activity, ORYSA (ORYSA; 0.016 kg/ha): 0 % inhibition | Herbicidal activity, ORYSA (ORYSA; 0.063 kg/ha): 30 % inhibition | Herbicidal activity, ORYSA (ORYSA; 1.000 kg/ha): 100 % inhibition | Herbicidal activity, ORYSA (ORYSA; 1.250 kg/ha): 100 % inhibition | Herbicidal activity, PANDI (PANDI; 0.016 kg/ha): 0 % inhibition | Herbicidal activity, PANDI (PANDI; 0.063 kg/ha): 100 % inhibition | Herbicidal activity, PANDI (PANDI; 1.000 kg/ha): 100 % inhibition | Herbicidal activity, PANDI (PANDI; 1.250 kg/ha): 100 % inhibition | Herbicidal activity, SORBI (SORBI; 0.016 kg/ha): 0 % inhibition | Herbicidal activity, SORBI (SORBI; 0.063 kg/ha): 0 % inhibition | Herbicidal activity, SORBI (SORBI; 1.000 kg/ha): 60 % inhibition | Herbicidal activity, SORBI (SORBI; 1.250 kg/ha): 20 % inhibition | Herbicidal activity, TRZAW (TRZAW; 0.016 kg/ha): 0 % inhibition | Herbicidal activity, TRZAW (TRZAW; 0.063 kg/ha): 0 % inhibition | Herbicidal activity, TRZAW (TRZAW; 1.000 kg/ha): 60 % inhibition | Herbicidal activity, TRZAW (TRZAW; 1.250 kg/ha): 20 % inhibition | Herbicidal activity, ZEAMX (ZEAMX; 0.016 kg/ha): 0 % inhibition | Herbicidal activity, ZEAMX (ZEAMX; 0.063 kg/ha): 0 % inhibition | Herbicidal activity, ZEAMX (ZEAMX; 1.000 kg/ha): 60 % inhibition | Herbicidal activity, ZEAMX (ZEAMX; 1.250 kg/ha): 10 % inhibition

CCON=C(CC)C1=C(O)CC(c2c(C)c(C)c3c(c2C)CC(C)(C)C3)CC1=O (stereo not drawn) [Compound 2]
Herbicidal activity, AESIN (AESIN; 0.016 kg/ha): 0 % inhibition | Herbicidal activity, AESIN (AESIN; 0.063 kg/ha): 0 % inhibition | Herbicidal activity, AESIN (AESIN; 1.000 kg/ha): 0 % inhibition | Herbicidal activity, AESIN (AESIN; 1.250 kg/ha): 0 % inhibition | Herbicidal activity, BROJA (BROJA; 0.016 kg/ha): 0 % inhibition | Herbicidal activity, BROJA (BROJA; 0.063 kg/ha): 20 % inhibition | Herbicidal activity, BROJA (BROJA; 1.000 kg/ha): 100 % inhibition | Herbicidal activity, BROJA (BROJA; 1.250 kg/ha): 60 % inhibition | Herbicidal activity, GLXMX (GLXMX; 0.016 kg/ha): 0 % inhibition | Herbicidal activity, GLXMX (GLXMX; 0.063 kg/ha): 0 % inhibition | Herbicidal activity, GLXMX (GLXMX; 1.000 kg/ha): 0 % inhibition | Herbicidal activity, GLXMX (GLXMX; 1.250 kg/ha): 0 % inhibition | Herbicidal activity, ORYSA (ORYSA; 0.016 kg/ha): 0 % inhibition | Herbicidal activity, ORYSA (ORYSA; 0.063 kg/ha): 0 % inhibition | Herbicidal activity, ORYSA (ORYSA; 1.000 kg/ha): 100 % inhibition | Herbicidal activity, ORYSA (ORYSA; 1.250 kg/ha): 60 % inhibition | Herbicidal activity, PANDI (PANDI; 0.016 kg/ha): 0 % inhibition | Herbicidal activity, PANDI (PANDI; 0.063 kg/ha): 50 % inhibition | Herbicidal activity, PANDI (PANDI; 1.000 kg/ha): 100 % inhibition | Herbicidal activity, PANDI (PANDI; 1.250 kg/ha): 100 % inhibition | Herbicidal activity, SORBI (SORBI; 0.016 kg/ha): 0 % inhibition | Herbicidal activity, SORBI (SORBI; 0.063 kg/ha): 0 % inhibition | Herbicidal activity, SORBI (SORBI; 1.000 kg/ha): 100 % inhibition | Herbicidal activity, SORBI (SORBI; 1.250 kg/ha): 30 % inhibition | Herbicidal activity, TRZAW (TRZAW; 0.016 kg/ha): 0 % inhibition | Herbicidal activity, TRZAW (TRZAW; 0.063 kg/ha): 0 % inhibition | Herbicidal activity, TRZAW (TRZAW; 1.000 kg/ha): 80 % inhibition | Herbicidal activity, TRZAW (TRZAW; 1.250 kg/ha): 20 % inhibition | Herbicidal activity, ZEAMX (ZEAMX; 0.016 kg/ha): 0 % inhibition | Herbicidal activity, ZEAMX (ZEAMX; 0.063 kg/ha): 0 % inhibition | Herbicidal activity, ZEAMX (ZEAMX; 1.000 kg/ha): 100 % inhibition | Herbicidal activity, ZEAMX (ZEAMX; 1.250 kg/ha): 40 % inhibition
